These results are taken from US10314841B2, “Substituted pyrazoles as IRAK inhibitors” (Merck Patent GmbH, priority 2014, dated 2019).

One assay has as its target T1, IRAK4 (His-TEV-IRAK4) (Homo sapiens, UniProt Q9NWZ3).
T1 construct: His (N); TEV cleavage site (N)
T1 sequence (Q9NWZ3 1-460): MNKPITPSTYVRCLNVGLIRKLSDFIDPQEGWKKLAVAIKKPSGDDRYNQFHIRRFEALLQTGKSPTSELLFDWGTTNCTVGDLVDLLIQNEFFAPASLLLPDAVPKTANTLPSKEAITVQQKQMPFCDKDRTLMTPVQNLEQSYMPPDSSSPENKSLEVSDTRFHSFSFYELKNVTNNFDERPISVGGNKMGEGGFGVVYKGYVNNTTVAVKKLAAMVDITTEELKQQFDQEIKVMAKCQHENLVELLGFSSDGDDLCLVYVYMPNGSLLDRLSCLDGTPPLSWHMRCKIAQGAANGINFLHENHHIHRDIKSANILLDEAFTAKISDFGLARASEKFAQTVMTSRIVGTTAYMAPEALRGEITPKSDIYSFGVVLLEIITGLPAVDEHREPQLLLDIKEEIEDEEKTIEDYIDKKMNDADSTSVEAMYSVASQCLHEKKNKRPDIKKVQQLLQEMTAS
The assay can be described thus: IRAK4 enzymatic assay. Format: biochemical. The settings on record: human recombinant His-TEV-IRAK4, ATP 2 μM, STK1-biotin peptide 300 nM, 3 hours at 30° C., FlashPlate. On the procedure: IRAK4 Enzymatic Assay IRAK4 is a human purified recombinant enzyme (His-TEV-[…] (194-712). IRAK4 hydrolyses ATP, autophosphorylates and phosphorylates a Serine/Threonine generic peptidic substrate (STK: 61 ST1BLC from CisBio International based in Bagnols/Cèze FR). Measurement of IRAK-4 inhibition was performed in streptavidin coated 384 well FlashPlate (PerkinElmer #SM[…]). His-TEV-IRAK4 (20 ng/well), ATP (2 μM, [^33P]ATP 0.25 μCi/well), STK1-biotin peptide (300 nM) and compounds in DMSO (range of concentrations from 20 μM to 1 nM) or controls (2% DMSO) were incubated for 3 hours at 30° C. in assay buffer: Hepes pH7.0 50 mM, Fatty acid-free BSA 0.1%, Dithiothreitol DTT 2 mM, MgCl2 10 mM, EGTA 0.5 mM, Tween-20 0.01%, MnCl2 5 mM. Kinase reaction was stopped by addition of EDTA. Supernatant was discarded, plates were washed three times with 150 mM NaCl and radioactivity was then measured in a Microbeta Trilux reader.

The test system of assay [1] is TLR7 induced IL-6 secretion in human PBMC's. Nature of the assay: TLR7 induced IL-6 in human PBMC's. Format: cell-based. The settings on record: read-out: TLR7 induced IL-6 secretion in hPBMC's (IC50). On the procedure: TLR7 Induced IL-6 in Human PBMC's Human PBMC assay was used as one of the functional assays to monitor the activity of IRAK1 and IRAK4 small molecule inhibitors on TLR7 induced IL-6 secretion in human mononuclear cells (PBMC's). Human PBMCs were prepared from buffy coats (whole blood enriched with leukocytes and platelets) obtained from healthy volunteers used either fresh or frozen are plated in assay media (RPMI+2% P/S/L-glu+10% HI-FBS) and pre-treated with compounds in DMSO/media (range of concentrations from 25 uM to 0.4 nM) or controls (0.25% DMSO) for 30 minutes at 37° C. in assay media. Following pre-treatment with IRAK1 and IRAK4 inhibitors, PBMC's were stimulated with TLR7 specific ligand (2 uM) overnight (16-18 hrs) at 37° C. After incubation supernatant was transferred to 384 well PE AlphaPlate-384 (6005350) and IL-6 is quantified using Perkin Elmer IL-6 Alpha LISA kit (A[…]). Plates were read on an Envision® plate reader with Alpha Technology®.

For assay [2], the target named is T2, IRAK1 (His-TEV-IRAK1 (194-712)) (Homo sapiens, UniProt P51617).
T2 construct: His-TEV-IRAK1 (194-712); His (N); TEV cleavage site (N)
The assay can be described thus: IRAK1 enzymatic assay. Format: biochemical. The settings on record: human recombinant His-TEV-IRAK1, ATP 1 μM, 3 hours at 30° C., FlashPlate. On the procedure:
IRAK1 Enzymatic Assay IRAK1 is a human purified recombinant enzyme (His-TEV-IRAK1 (194-712)). In this assay, IRAK-1 hydrolyses ATP and autophosphorylates. Measurement of IRAK-1 inhibition was performed in streptavidin coated 384 well FlashPlate (PerkinElmer #SM[…]). His-TEV-IRAK-1 (15 ng/well), ATP (1 μ[…]]ATP 0.25 μCi/well) and compounds in DMSO (range of concentrations from 20 μM to 1 nM) or controls (2% DMSO) were incubated for 3 hours at 30° C. in assay buffer: Hepes pH7.0 50 mM, Fatty acid-free BSA 0.1%, Dithiothreitol DTT 2 mM, MgCl2 10 mM, EGTA 0.5 mM, Triton-X-100 0.01%. Kinase reaction was stopped by addition of EDTA. Supernatant was discarded, plates were washed three times with 150 mM NaCl and radioactivity was then measured in a Microbeta Trilux reader.

[3] abbreviates: human PBMC, TLR7 specific ligand 2 uM overnight, IL-6 Alpha LISA.

Read-outs that look alike come from different tables or passages of the source.

T2 sequence (P51617 194-712): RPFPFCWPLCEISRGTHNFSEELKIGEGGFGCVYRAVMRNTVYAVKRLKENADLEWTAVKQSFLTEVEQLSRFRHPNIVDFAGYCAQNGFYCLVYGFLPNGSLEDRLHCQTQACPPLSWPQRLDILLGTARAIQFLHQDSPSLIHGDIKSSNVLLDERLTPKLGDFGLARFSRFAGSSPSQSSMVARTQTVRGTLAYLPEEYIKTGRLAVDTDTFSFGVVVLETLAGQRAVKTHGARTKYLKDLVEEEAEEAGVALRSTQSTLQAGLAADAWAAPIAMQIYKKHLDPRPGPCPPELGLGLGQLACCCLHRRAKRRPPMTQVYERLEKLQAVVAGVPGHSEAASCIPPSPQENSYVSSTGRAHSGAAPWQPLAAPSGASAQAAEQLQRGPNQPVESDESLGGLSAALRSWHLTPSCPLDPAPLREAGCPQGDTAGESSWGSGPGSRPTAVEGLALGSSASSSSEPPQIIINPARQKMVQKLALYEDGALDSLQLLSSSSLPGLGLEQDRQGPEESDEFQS

As a reminder, the IC50 is the concentration at which inhibition is half-maximal. As for `Cn1cc(-c2cccc(-c3ncc(-c4cnn(C5CCNCC5CO)c4)cn3)c2)cn1` (mixture of isomers) [Compound 26, [4-(4-{2-[3-(1-Methyl-1H-pyrazol-4-yl)-phenyl]-pyrimidin-5-yl}-pyrazol-1-yl)-piperidin-3-yl]-methanol], the IC50 at IRAK4 (His-TEV-IRAK4) lay in the range of 100 to 1000 nM; in assay [1] (setting [3]), 1000 to 20000 nM; in assay [2] it was 100 to 1000 nM.

`Cn1cc(-c2cccc(-c3ncc(-c4cnn(C5CCCC(C(=O)O)C5)c4)cn3)c2)cn1` (mixture of isomers) [Compound 41, Lithium 3-(4-{2-[3-(1-Methyl-1H-pyrazol-4-yl)-phenyl]-pyrimidin-5-yl}-pyrazol-1-yl)-cyclohexanecarboxylate]: the IC50 on IRAK4 (His-TEV-IRAK4) was 100 to 1000 nM; in assay [1] (Homo sapiens, PBMC), 1000 to 20000 nM; in assay [2], 1000 to 20000 nM.

As for `C=CS(=O)(=O)N[C@@H]1CCC[C@H](n2cc(-c3cnc(-c4cccc(-c5cnn(C)c5)c4)nc3)cn2)C1` (racemic) [Compound 33], the IC50 at IRAK4 (His-TEV-IRAK4) was below 100 nM; in assay [1] (setting [3]), 100 to 1000 nM; in assay [2] it was below 100 nM.

Consider `Cn1cc(-c2cccc(-c3ncc(-c4cnn([C@H]5CCC[C@H](NCCO)C5)c4)cn3)c2)cn1` (relative stereo) [Compound 2, 2-[Trans-3-(4-{2-[3-(1-Methyl-1H-pyrazol-4-yl)-phenyl]-pyrimidin-5-yl}-pyrazol-1-yl)-cyclohexylamino]-ethanol], for which the IC50 at IRAK4 (His-TEV-IRAK4) was below 100 nM; in assay [1] (setting [3]) it was 1000 to 20000 nM; in assay [2], 100 to 1000 nM.

As to `Cn1cc(-c2cccc(-c3ncc(-c4cnn([C@H]5CCC[C@H](N6CCOCC6=O)C5)c4)cn3)c2)cn1` (relative stereo) [Compound 3, 4-[Trans-3-(4-{2-[3-(1-Methyl-1H-pyrazol-4-yl)-phenyl]-pyrimidin-5-yl}-pyrazol-1-yl)-cyclohexyl]-morpholin-3-one], the values for the IC50 (at IRAK4 (His-TEV-IRAK4); in assay [1] (setting [3]); in assay [2]) were below 100 nM, 100 to 1000 nM and 100 to 1000 nM, respectively.

With `Cn1cc(-c2cccc(-c3ncc(-c4cnn([C@H]5CCC[C@@H](N6CCOCC6)C5)c4)cn3)c2)cn1` (relative stereo) [Compound 4, 4-[Cis-3-(4-{2-[3-(1-Methyl-1H-pyrazol-4-yl)-phenyl]-pyrimidin-5-yl}-pyrazol-1-yl)-cyclohexyl]-morpholine], the IC50 was below 100 nM on IRAK4 (His-TEV-IRAK4), 100 to 1000 nM in assay [1] (setting [3]) and 100 to 1000 nM in assay [2].

Turning to `Cn1cc(-c2cccc(-c3ncc(-c4cnn([C@H]5CCC[C@H](S(C)(=N)=O)C5)c4)cn3)c2)cn1` (relative stereo) [Compound 35], the IC50 was below 100 nM on IRAK4 (His-TEV-IRAK4), 1000 to 20000 nM in assay [1] (setting [3]) and 100 to 1000 nM in assay [2].

For the molecule `C=CC(=O)N[C@@H]1CCC[C@H](n2cc(-c3cnc(-c4cccc(-c5cnn(C)c5)c4)nc3)cn2)C1` (relative stereo) [Compound 36], the half-inhibitory concentration (IC50) at IRAK4 (His-TEV-IRAK4) was below 100 nM; in assay [1] (setting [3]), 100 to 1000 nM; in assay [2] it was below 100 nM.

As for `C=CS(=O)(=O)N[C@H]1CCC[C@H](n2cc(-c3cnc(-c4cccc(-c5cnn(C)c5)c4)nc3)cn2)C1` (relative stereo) [Compound 37, Ethenesulfonic acid [Trans-3-(4-{2-[3-(1-methyl-1H-pyrazol-4-yl)-phenyl]-pyrimidin-5-yl}-pyrazol-1-yl)-cyclohexyl]-amide], the figures for the IC50 (on IRAK4 (His-TEV-IRAK4); in assay [1] (setting [3]); in assay [2]) were below 100 nM, 100 to 1000 nM and below 100 nM, respectively.

Take `Cn1cc(-c2cccc(-c3ncc(-c4cnn([C@@H]5CCC[C@@H](NS(C)(=O)=O)C5)c4)cn3)c2)cn1` (single isomer, unassigned) [Compound 27]: the IC50 at IRAK4 (His-TEV-IRAK4) was below 100 nM; in assay [1] (setting [3]), 100 to 1000 nM; in assay [2], 100 to 1000 nM.

For `Cn1cc(-c2cccc(-c3ncc(-c4cnn([C@H]5CCC[C@@H](NS(C)(=O)=O)C5)c4)cn3)c2)cn1` (single isomer, unassigned) [Compound 28], the figures for the half-inhibitory concentration (IC50) (at IRAK4 (His-TEV-IRAK4); in assay [1] (setting [3]); in assay [2]) were 100 to 1000 nM, 1000 to 20000 nM and 100 to 1000 nM, respectively.

For the molecule `Cn1cc(-c2cccc(-c3ncc(-c4cnn(C5CCCC(NC(=O)OC(C)(C)C)C5)c4)cn3)c2)cn1` (centres unmarked) [Compound 9, [3-(4-{2-[3-(1-Methyl-1H-pyrazol-4-yl)-phenyl]-pyrimidin-5-yl}-pyrazol-1-yl)-cyclohexyl]-carbamic acid tert-butyl ester], the IC50 on IRAK4 (His-TEV-IRAK4) is below 100 nM; in assay [1] (setting [3]), 1000 to 20000 nM; in assay [2], below 100 nM.

For `C=CC(=O)N1CCC(n2cc(-c3cnc(-c4cccc(-c5cnn(C)c5)c4)nc3)cn2)CC1` [Compound 10, 1-[4-(4-{2-[3-(1-Methyl-1H-pyrazol-4-yl)-phenyl]-pyrimidin-5-yl}-pyrazol-1-yl)-piperidin-1-yl]-propenone], the IC50 is below 100 nM at IRAK4 (His-TEV-IRAK4), 100 to 1000 nM in assay [1] (setting [3]) and 100 to 1000 nM in assay [2].

Regarding `Cn1cc(-c2cccc(-c3ncc(-c4cnn(C5CCCC(N6CCC(F)(F)CC6)C5)c4)cn3)c2)cn1` (centres unmarked) [Compound 11, 5-{1-[3-(4,4-Difluoro-piperidin-1-yl)-cyclohexyl]-1H-pyrazol-4-yl}-2-[3-(1-methyl-1H-pyrazol-4-yl)-phenyl]-pyrimidine], the 50% inhibitory concentration (IC50) on IRAK4 (His-TEV-IRAK4) is below 100 nM; in assay [1] (setting [3]), 100 to 1000 nM; in assay [2], 100 to 1000 nM.

For the molecule `Cn1cc(-c2cccc(-c3ncc(-c4cnn(C5CCC[C@@H](NC6CCOC6)C5)c4)cn3)c2)cn1` (stereo partly drawn) [Compound 12, [3-Cis-(4-{2-[3-(1-Methyl-1H-pyrazol-4-yl)-phenyl]-pyrimidin-5-yl}-pyrazol-1-yl)-cyclohexyl]-(tetrahydro-furan-3-yl)-amine], the IC50 on IRAK4 (His-TEV-IRAK4) is below 100 nM; in assay [1] (setting [3]), 100 to 1000 nM; in assay [2], below 100 nM.

Regarding `C=CC(=O)N1CCCC(n2cc(-c3cnc(-c4cccc(-c5cnn(C)c5)c4)nc3)cn2)C1` (centres unmarked) [Compound 14, 1-[3-(4-{2-[3-(1-Methyl-1H-pyrazol-4-yl)-phenyl]-pyrimidin-5-yl}-pyrazol-1-yl)-piperidin-1-yl]-propenone], the IC50 at IRAK4 (His-TEV-IRAK4) is below 100 nM; in assay [1] (setting [3]) it was 100 to 1000 nM; in assay [2], 100 to 1000 nM.

For `C=CC(=O)NC1CCCC(n2cc(-c3cnc(-c4cccc(-c5cnn(C)c5)c4)nc3)cn2)C1` (centres unmarked) [Compound 15, N-[3-(4-{2-[3-(1-Methyl-1H-pyrazol-4-yl)-phenyl]-pyrimidin-5-yl}-pyrazol-1-yl)-cyclohexyl]-acrylamide], the IC50 (at IRAK4 (His-TEV-IRAK4); in assay [1] (setting [3]); in assay [2]) was below 100 nM each time.

For the molecule `CN(C)C/C=C/C(=O)N1CCC(n2cc(-c3cnc(-c4cccc(-c5cnn(C)c5)c4)nc3)cn2)CC1` [Compound 47, (E)-4-Dimethylamino-1-[4-(4-{2-[3-(1-methyl-1H-pyrazol-4-yl)-phenyl]-pyrimidin-5-yl}-pyrazol-1-yl)-piperidin-1-yl]-but-2-en-1-one], the IC50 (at IRAK4 (His-TEV-IRAK4); in assay [2]) was 100 to 1000 nM in each case.
